The target of assay [1] is T1, human recombinant histamine H1 receptor (Homo sapiens, UniProt P35367).
T1 construct: expressed in transfected cells; host or cells: CHO cells
The assay can be described thus: Histamine H1 radioligand binding ([3H]Pyrilamine). The following applies: percent inhibition of specific binding; screened at 1 μM; read-out: Inhibition of ligand binding, Hist. H1. The gist of the method: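 Receptor expressed in CHO cells, assayed in 50 mM Tris-HCl pH 7.4 with 2 mM MgCl2, 100 mM NaCl, 250 mM sucrose. Compounds tested at 1 μM in 1% DMSO; non-specific binding set with 1 μM pyrilamine. Filter-bound radioactivity counted; values are percent inhibition of specific binding.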

For assay [2], the target named is T2, human recombinant adrenergic α1D receptor (Homo sapiens, UniProt P25100).
T2 construct: expressed in transfected cells; host or cells: HEK-293 cells
T2 sequence (P25100 1-572): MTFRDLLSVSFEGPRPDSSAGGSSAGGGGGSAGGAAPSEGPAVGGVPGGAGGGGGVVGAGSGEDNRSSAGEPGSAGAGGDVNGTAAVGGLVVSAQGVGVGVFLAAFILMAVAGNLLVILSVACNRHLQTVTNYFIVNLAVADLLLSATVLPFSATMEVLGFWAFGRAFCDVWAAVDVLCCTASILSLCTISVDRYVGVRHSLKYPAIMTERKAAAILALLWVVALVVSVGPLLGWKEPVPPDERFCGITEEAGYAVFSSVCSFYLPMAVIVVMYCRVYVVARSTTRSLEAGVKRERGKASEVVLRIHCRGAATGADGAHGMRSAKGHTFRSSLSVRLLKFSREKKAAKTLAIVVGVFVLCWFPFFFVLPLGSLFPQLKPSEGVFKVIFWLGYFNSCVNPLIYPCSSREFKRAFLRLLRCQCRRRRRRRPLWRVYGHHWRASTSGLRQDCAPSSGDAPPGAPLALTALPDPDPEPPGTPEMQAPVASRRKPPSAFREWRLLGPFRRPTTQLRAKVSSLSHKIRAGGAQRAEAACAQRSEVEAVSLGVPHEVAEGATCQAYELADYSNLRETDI
The assay can be described thus: Adrenergic α1D radioligand binding ([3H]Prozosin). Set-up: Inhibition of ligand binding, Adren. alpha1D: concentration or dose not given beside the values. The following applies: percent inhibition of specific binding. How it is done: Compounds of invention were incubated with 0.6 nM [^3H]Prozosin for 60 minutes at 25° C. Non-specific binding was estimated in the presence of 10 μM phentolamine. Receptor proteins were filtered and washed, the filters were then counted to determine [^3H]Prozosin specifically bound. […] Biochemical assay results are presented as the percent inhibition of specific binding in Table 6.

The target of assay [3] is T3, human recombinant adrenergic α2A receptor (Homo sapiens, UniProt P08913).
T3 construct: expressed in transfected cells; host or cells: insect Sf9 cells
T3 sequence (P08913 1-465): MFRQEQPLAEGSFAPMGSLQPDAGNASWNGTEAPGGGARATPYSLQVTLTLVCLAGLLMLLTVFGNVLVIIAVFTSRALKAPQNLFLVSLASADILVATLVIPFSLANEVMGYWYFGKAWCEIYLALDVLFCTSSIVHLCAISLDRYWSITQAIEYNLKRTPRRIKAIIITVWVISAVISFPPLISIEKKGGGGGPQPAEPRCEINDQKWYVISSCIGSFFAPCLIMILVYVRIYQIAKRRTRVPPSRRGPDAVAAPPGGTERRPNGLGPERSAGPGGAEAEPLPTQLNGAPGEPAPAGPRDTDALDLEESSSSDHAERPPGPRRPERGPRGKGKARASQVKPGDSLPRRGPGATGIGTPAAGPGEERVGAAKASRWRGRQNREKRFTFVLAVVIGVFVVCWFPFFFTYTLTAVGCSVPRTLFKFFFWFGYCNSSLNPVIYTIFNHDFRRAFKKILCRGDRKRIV
The assay can be described thus: Adrenergic α2A radioligand binding ([3H]MK-912). The arrangement: Inhibition of ligand binding, Adren. alpha2A: concentration or dose not given beside the values. The following applies: percent inhibition of specific binding. The gist of the method: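 Membranes from Sf9 cells expressing the receptor were incubated with 1 nM [3H]MK-912 for 60 minutes at 25° C in 50 mM Tris-HCl pH 7.4, 12.5 mM MgCl2, 2 mM EDTA. 10 μM WB-4101 defined non-specific binding. Values are percent inhibition of specific bound radioactivity after filtration.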

The target of assay [4] is T4, human recombinant serotonin (5-Hydroxytryptamine) 5-HT2A receptor (Homo sapiens, UniProt P28223).
T4 construct: expressed in transfected cells; host or cells: CHO-K1 cells
T4 sequence (P28223 whole entry): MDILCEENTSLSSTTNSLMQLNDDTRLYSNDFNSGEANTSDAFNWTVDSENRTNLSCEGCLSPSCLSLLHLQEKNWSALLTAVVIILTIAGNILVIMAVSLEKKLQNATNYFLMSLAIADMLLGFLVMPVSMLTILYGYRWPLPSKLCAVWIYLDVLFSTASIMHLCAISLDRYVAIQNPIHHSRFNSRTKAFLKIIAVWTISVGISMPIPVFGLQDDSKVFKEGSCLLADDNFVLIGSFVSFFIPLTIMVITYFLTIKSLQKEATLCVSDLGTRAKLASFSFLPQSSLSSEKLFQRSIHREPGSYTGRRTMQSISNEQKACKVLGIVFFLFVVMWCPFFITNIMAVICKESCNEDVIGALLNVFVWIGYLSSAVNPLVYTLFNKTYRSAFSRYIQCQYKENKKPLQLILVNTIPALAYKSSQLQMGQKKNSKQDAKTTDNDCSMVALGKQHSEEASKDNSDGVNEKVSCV
The assay can be described thus: Serotonin 5-HT2A radioligand binding ([3H]Ketanserin). The settings on record: percent inhibition of specific binding. As to the method: Compounds of the invention were incubated with 0.5 nM [^3H]Ketanserin for 60 minutes at 25° C. Non-specific binding was estimated in the presence of 1 μM Mianserin. Receptor proteins were filtered and washed, the filters were then counted to determine [^3H]Ketanserin specifically bound. […] Biochemical assay results are presented as the percent inhibition of specific binding in Table 6.

Assay [5] concerns the target T5, human recombinant serotonin (5-Hydroxytryptamine) 5-HT6 receptor (Homo sapiens, UniProt P50406).
T5 construct: expressed in transfected cells; host or cells: human HeLa cells
The assay can be described thus: Serotonin 5-HT6 radioligand binding ([3H]LSD). The arrangement: Inhibition of ligand binding, Ser. 5-HT6: concentration or dose not given beside the values. The following applies: percent inhibition of specific binding. The source says: Receptor proteins were filtered and washed, the filters were then counted to determine [3H]LSD specifically bound. […] Biochemical assay results are presented as the percent inhibition of specific binding in Table 6.

T1 sequence (P35367 whole entry): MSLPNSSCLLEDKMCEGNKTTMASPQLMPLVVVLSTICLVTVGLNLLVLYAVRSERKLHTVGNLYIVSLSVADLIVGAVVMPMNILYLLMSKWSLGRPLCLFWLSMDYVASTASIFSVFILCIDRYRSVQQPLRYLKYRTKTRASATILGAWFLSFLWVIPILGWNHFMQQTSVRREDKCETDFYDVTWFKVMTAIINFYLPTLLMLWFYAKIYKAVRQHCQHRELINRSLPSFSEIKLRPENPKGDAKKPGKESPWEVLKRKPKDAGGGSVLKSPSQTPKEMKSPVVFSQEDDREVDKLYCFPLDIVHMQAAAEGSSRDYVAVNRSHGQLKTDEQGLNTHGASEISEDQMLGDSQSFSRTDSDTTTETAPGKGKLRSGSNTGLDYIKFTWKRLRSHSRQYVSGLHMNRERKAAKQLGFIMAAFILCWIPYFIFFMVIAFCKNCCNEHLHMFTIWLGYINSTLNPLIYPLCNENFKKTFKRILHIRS
T5 sequence (P50406 whole entry): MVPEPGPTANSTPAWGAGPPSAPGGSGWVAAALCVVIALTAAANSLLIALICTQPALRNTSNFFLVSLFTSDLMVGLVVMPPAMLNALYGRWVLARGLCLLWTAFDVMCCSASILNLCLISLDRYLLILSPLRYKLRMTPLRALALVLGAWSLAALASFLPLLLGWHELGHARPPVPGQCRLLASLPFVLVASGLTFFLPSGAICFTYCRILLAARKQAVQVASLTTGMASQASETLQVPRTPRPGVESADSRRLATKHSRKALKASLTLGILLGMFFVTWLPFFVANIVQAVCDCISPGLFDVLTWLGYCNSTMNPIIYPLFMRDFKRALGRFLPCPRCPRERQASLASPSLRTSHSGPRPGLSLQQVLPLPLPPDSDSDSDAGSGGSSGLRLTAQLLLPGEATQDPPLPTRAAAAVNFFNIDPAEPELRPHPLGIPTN

The inhibition is the change of the read-out against control, counted positive when it falls. As to `Cc1ccc(CCn2c3c(c4cc(Cl)c(F)cc42)CN(C)CC3)cn1` [Compound 404, 8-Chloro-7-fluoro-2-methyl-5-[2-(6-methyl-pyridin-3-yl)-ethyl]-2,3,4,5-tetrahydro-1H-pyrido[4,3-b]indole], in assay [1], the inhibition at 1 µM amounted to 102%. Moreover, the “Inhibition of ligand binding, Adren. alpha1D” value (“Inhibition … Adren. alpha1D” for short) in assay [2] is reported as 81%. Further, the “Inhibition of ligand binding, Adren. alpha2A” value (from here on “Inhibition … Adren. alpha2A”) in assay [3] was 94%. For the same compound, in assay [4], the “Inhibition of ligand binding, Ser. 5-HT2A” value (from here on “Inhibition … Ser. 5-HT2A”) is given as 88%. Moreover, in assay [5], the “Inhibition of ligand binding, Ser. 5-HT6” value is given as 94%.

As to `CN1CCN(CCn2c3c(c4cc(Cl)ccc42)CN(C)CC3)CC1` [Compound 417, 8-chloro-2,3,4,5-tetrahydro-2-methyl-5-(2-(4-methylpiperazin-1-yl)ethyl)-1H-pyrido[4,3-b]indole], in assay [1], the inhibition at 1 µM came out at 10%. Besides, in assay [2], the “Inhibition … Adren. alpha1D” value came out at 1%. In addition, the “Inhibition … Adren. alpha2A” value in assay [3] was determined as 28%. Besides, the “Inhibition … Ser. 5-HT2A” value in assay [4] turned out to be 23%. Also, in assay [5], the “Inhibition of ligand binding, Ser. 5-HT6” value stood at 5%.

As to `CN1CCc2c(c3cc(Cl)ccc3n2CCc2cncnc2)C1` [Compound 424, 8-Chloro-2-methyl-5-(2-pyrimidin-5-yl-ethyl)-2,3,4,5-tetrahydro-1H-pyrido[4,3-b]indole], in assay [1], the inhibition at 1 µM amounted to 104%. Also, the “Inhibition … Adren. alpha1D” value in assay [2] is listed as 57%. Further, the “Inhibition … Adren. alpha2A” value in assay [3] came to 28%. Besides, in assay [4], the “Inhibition … Ser. 5-HT2A” value came to 52%. For the same compound, the “Inhibition of ligand binding, Ser. 5-HT6” value in assay [5] turned out to be 82%.

As to `Cc1ccc2c(c1)c1c(n2CCc2cncc(C(F)(F)F)c2)CCN(C)C1` [Compound 425, 5-(2-(5-(trifluoromethyl)pyridin-3-yl)ethyl)-2,3,4,5-tetrahydro-2,8-dimethyl-1H-pyrido[4,3-b]indole], the inhibition at 1 µM in assay [1] stood at 100%. The “Inhibition … Adren. alpha1D” value in assay [2] is given as 65%. Also, the “Inhibition … Adren. alpha2A” value in assay [3] was 49%. In addition, in assay [4], the “Inhibition … Ser. 5-HT2A” value turned out to be 84%. Further, the “Inhibition of ligand binding, Ser. 5-HT6” value in assay [5] amounted to 64%.

Regarding `CN1CCc2c(c3cc(Cl)ccc3n2CCc2cncc(C(F)(F)F)c2)C1` [Compound 426, 8-chloro-5-(2-(5-(trifluoromethyl)pyridin-3-yl)ethyl)-2,3,4,5-tetrahydro-2-methyl-1H-pyrido[4,3-b]indole], the inhibition at 1 µM in assay [1] worked out at 99%. The “Inhibition … Adren. alpha1D” value in assay [2] stood at 69%. In assay [3], the “Inhibition … Adren. alpha2A” value is recorded as 42%. Moreover, in assay [4], the “Inhibition … Ser. 5-HT2A” value stood at 85%. For the same compound, in assay [5], the “Inhibition of ligand binding, Ser. 5-HT6” value is reported as 65%.

As to `Cc1cncc(CCn2c3c(c4cc(C)ccc42)CN(C)CC3)c1` [Compound 429, 2,3,4,5-tetrahydro-2,8-dimethyl-5-(2-(5-methylpyridin-3-yl)ethyl)-1H-pyrido[4,3-b]indole], the inhibition at 1 µM in assay [1] was determined as 100%. In addition, in assay [2], the “Inhibition … Adren. alpha1D” value is given as 69%. Further, the “Inhibition … Adren. alpha2A” value in assay [3] amounted to 67%. Further, in assay [4], the “Inhibition … Ser. 5-HT2A” value is listed as 76%. Further, the “Inhibition of ligand binding, Ser. 5-HT6” value in assay [5] amounted to 79%.

With `Cc1ccc2c(c1)c1c(n2CCc2cncc(Cl)c2)CCN(C)C1` [Compound 443, 5-(2-(5-chloropyridin-3-yl)ethyl)-2,3,4,5-tetrahydro-2,8-dimethyl-1H-pyrido[4,3-b]indole], the inhibition at 1 µM in assay [1] turned out to be 102%. Moreover, in assay [2], the “Inhibition … Adren. alpha1D” value is recorded as 91%. In assay [3], the “Inhibition … Adren. alpha2A” value is 87%. Besides, in assay [4], the “Inhibition … Ser. 5-HT2A” value worked out at 94%. The “Inhibition of ligand binding, Ser. 5-HT6” value in assay [5] came out at 96%.

As to `CN1CCc2c(c3cc(Cl)ccc3n2CCc2cncc(Cl)c2)C1` [Compound 444, 8-chloro-5-(2-(5-chloropyridin-3-yl)ethyl)-2,3,4,5-tetrahydro-2-methyl-1H-pyrido[4,3-b]indole], the inhibition at 1 µM in assay [1] was 101%. The “Inhibition … Adren. alpha1D” value in assay [2] amounted to 91%. The “Inhibition … Adren. alpha2A” value in assay [3] was 89%. The “Inhibition … Ser. 5-HT2A” value in assay [4] was 95%. For the same compound, in assay [5], the “Inhibition of ligand binding, Ser. 5-HT6” value came to 96%.

Regarding `CCCc1ccc(CCn2c3c(c4cc(C)ccc42)CN(C)CC3)cn1` [Compound 452, 2,8-Dimethyl-5-[2-(6-propyl-pyridin-3-yl)-ethyl]-2,3,4,5-tetrahydro-1H-pyrido[4,3-b]indole], the inhibition at 1 µM in assay [1] was 109%. The “Inhibition … Adren. alpha1D” value in assay [2] came to 82%. Moreover, the “Inhibition … Adren. alpha2A” value in assay [3] amounted to 92%. Moreover, the “Inhibition … Ser. 5-HT2A” value in assay [4] worked out at 97%. In assay [5], the “Inhibition of ligand binding, Ser. 5-HT6” value was determined as 93%.

Consider `CC(Cn1c2c(c3ccccc31)CN(C)CC2)c1ccc(F)cc1` (centres unmarked) [Compound 455], for which the inhibition at 1 µM in assay [1] is 80%. Moreover, in assay [2], the “Inhibition … Adren. alpha1D” value came to 81%. Besides, the “Inhibition … Adren. alpha2A” value in assay [3] came to 93%. For the same compound, the “Inhibition … Ser. 5-HT2A” value in assay [4] worked out at 99%. Besides, in assay [5], the “Inhibition of ligand binding, Ser. 5-HT6” value was determined as 99%.

In the case of `Cc1ccc2c(c1)c1c(n2CC(C)c2ccc(F)cc2)CCN(C)C1` (centres unmarked) [Compound 456, 5-(2-(4-fluorophenyl)propyl)-2,3,4,5-tetrahydro-2,8-dimethyl-1H-pyrido[4,3-b]indole], the inhibition at 1 µM in assay [1] stood at 99%. For the same compound, the “Inhibition … Adren. alpha1D” value in assay [2] was found to be 96%. In addition, the “Inhibition … Adren. alpha2A” value in assay [3] was found to be 106%. The “Inhibition … Ser. 5-HT2A” value in assay [4] worked out at 104%. Also, the “Inhibition of ligand binding, Ser. 5-HT6” value in assay [5] was 98%.

Regarding `Cc1ccc2c(c1)c1c(n2CC(=O)N2CCN(C)CC2)CCN(C)C1` [Compound 459, 2-(1,2,3,4-tetrahydro-2,8-dimethylpyrido[4,3-b]indol-5-yl)-1-(4-methylpiperazin-1-yl)ethanone], the inhibition at 1 µM in assay [1] amounted to 0%. Moreover, in assay [2], the “Inhibition … Adren. alpha1D” value was found to be 0%. In addition, the “Inhibition … Adren. alpha2A” value in assay [3] is on record as −9%. Besides, the “Inhibition … Ser. 5-HT2A” value in assay [4] is given as 1%. The “Inhibition of ligand binding, Ser. 5-HT6” value in assay [5] is −10%.

In the case of `CCCc1ccc(CCn2c3c(c4cc(Cl)ccc42)CN(C)CC3)cn1` [Compound 476, 8-chloro-2,3,4,5-tetrahydro-2-methyl-5-(2-(6-propylpyridin-3-yl)ethyl)-1H-pyrido[4,3-b]indole], the inhibition at 1 µM in assay [1] turned out to be 98%. Further, the “Inhibition … Adren. alpha1D” value in assay [2] was found to be 95%. Further, in assay [3], the “Inhibition … Adren. alpha2A” value came out at 87%. Moreover, in assay [4], the “Inhibition … Ser. 5-HT2A” value came to 100%. Also, the “Inhibition of ligand binding, Ser. 5-HT6” value in assay [5] turned out to be 87%.

Source of the values: patent US9096591B2, “Tetracyclic compounds” (Medivation Technologies, Inc., priority 2007, dated 2015).
